From patent publication US20210308166A1, “ANTIOXIDANT COMPOSITION COMPRISING NOVEL GINSENOSIDE” (AMOREPACIFIC CORPORATION, priority 2018, published 2021)

Legend:
[1] = DPPH radical-scavenging (DPPH inhibition) assay; format: biochemical
Procedure: The DPPH (2,2-diphenyl-1-picrylhydrazyl) radical dissolved in an organic solvent has maximum absorbance at 515 nm. An antioxidant substance scavenges the DPPH radical, thereby turning the solution colorless and transparent. Accordingly, antioxidant effect can be compared by measuring the DPPH radical-scavenging activity of the ginsenosides through DPPH assay.
First, a DPPH solution was prepared by dissolving 4 mg of DPPH (Sigma) in 100 mL of ethanol (Sigma). Then, 10 μM of the novel ginsenoside GS #10 of an exemplary embodiment of the present disclosure or each of the ginsenosides GS #01 to GS #06 as comparative examples of the present disclosure, isolated from the ginseng seed extract, were dissolved in 200 μL of the DPPH solution. Trolox (Sigma; 10 μM) was used as a positive control group. After keeping the reaction solution at room temperature for 30 minutes, absorbance was measured at a wavelength of 515 nm.
DPPH-inhibiting effect was compared in the same manner as in Test Example 1. The novel ginsenoside GS #10 (isolated form the ginseng seed extract) according to an exemplary embodiment of the present disclosure was compared with three marker compounds of red ginseng (Rg1, Rg3 and Rb1; Sigma) as comparative examples of the present disclosure. The concentrations of the ginsenosides were 1 and 10 μM. […]

RAW 264.7 macrophages = assay: Scavenging of LPS-induced reactive oxygen species, H2DCFDA fluorescence; format: cell-based
Procedure: RAW 264.7 macrophages purchased from ATCC were cultured in Dulbecco's modified Eagle's medium (Sigma) supplemented with 10% fetal bovine serum (FBS; HyClone) and 1% penicillin/streptomycin (Sigma) in a 5% CO2 incubator. After treating the RAW 264.7 cells with NAC (N-acetylcysteine; positive control group; Sigma) or each of the 7 ginsenosides extracted from the ginseng seed (GS #01 to GS #06 and GS #10; 10 μM each) for 1 hour, lipidpolysaccharides (LPS; inflammation/oxidative stress-induced group, Sigma) ware administered at a concentration of 10 ng/mL concentration for 30 minutes. Then, the cells were treated with 10 μM H2DCFDA (2′,7′-dichlorodihydrofluorescein diacetate; Invitrogen) for 30 minutes for measurement of reactive oxygen species. The amount of accumulated reactive oxygen species was measured using a TECAN multiplate reader (Tecan AG, excitation 485 nm, emission 530 nm).
The reactive oxygen species-scavenging ability of the novel ginsenoside GS #10 (isolated from the ginseng seed extract) according to an exemplary embodiment of the present disclosure was compared with that of three ginsenosides (Rg1, Rg3 and Rb1; Sigma), which are marker compounds of red ginseng as comparative examples of the present disclosure, in the same manner as in Test Example 2. The concentrations of the ginsenosides were 1 and 10 μM.

SH-SY5Y cells = assay: Cytotoxicity / cell viability, CCK-8; format: cell-based; conditions: SH-SY5Y cells, 0.1, 1, 5, 10, 20 and 50 μM, CCK-8 (FIG. 15)
Procedure: In order to exclude the possibility that the ginsenoside might affect antioxidant effect through cytotoxic activity, cell growth in the presence of the novel ginsenoside GS #10 according to an exemplary embodiment of the present disclosure was evaluated as follows using CCK (Cell Counting Kit)-8.
After adding 10 μL of CCK-8 reagent to SH-SY5Y cells (Dojindo, Md., USA) on a 96-well plate and maintaining at 37° C. for 2 hours, absorbance was measured at 450 nm. Cell viability was represented as the percentage (%) of the absolute optical density of each sample with respect to an untreated sample. The concentrations of the novel ginsenoside GS #10 according to an exemplary embodiment of the present disclosure in the medium for culturing the cells were 0.1, 1, 5, 10, 20 and 50 μM.

CC1(C)C(=O)CC[C@@]2(C)C1[C@@H](O[C@H]1OC(CO)[C@H](O)C(O)C1O[C@H]1OC(CO)[C@H](O)C(O)C1O)C[C@]1(C)C2C[C@@H](O)C2C([C@]3(C)CC[C@H](C(C)(C)O)O3)CC[C@]21C (stereo partly drawn) [Compound 10, (20S,24R)-6-O-β-D-glucopyranosyl(1->2)-β-D-glucopyranoside-dammar-3-one-20,24-epoxy-6a,12b,25-triol]
DPPH (reactive oxygen species)-scavenging ability, i.e., DPPH-inhibiting ability ([1]; 10 μM, room temperature 30 minutes, absorbance 515 nm, compared to Compounds 1-6 at the same concentration (FIG. 11)): remarkably higher DPPH (reactive oxygen species)-scavenging ability
DPPH-inhibiting effect ([1]; 1 and 10 μM, compared to ginsenosides Rg1, Rg3 and Rb1, marker compounds of red ginseng (FIG. 13)): remarkably excellent DPPH-inhibiting effect
removal of reactive oxygen species induced by LPS (RAW 264.7 macrophages; 10 μM for 1 hour, then LPS 10 ng/mL 30 minutes, compared to Compounds 1-6 at the same concentration (FIG. 12)): can effectively remove the reactive oxygen species induced by LPS
production of reactive oxygen species (RAW 264.7 macrophages; 1 and 10 μM, LPS-treated RAW 264.7 cells (FIG. 14)): decreased as the concentration of the novel ginsenoside GS #10 according to the present disclosure was increased
reactive oxygen species-scavenging ability (RAW 264.7 macrophages; 1 and 10 μM, compared to ginsenosides Rg1, Rg3 and Rb1 (FIG. 14)): remarkably superior
cytotoxicity (cell viability, % of untreated sample) (SH-SY5Y cells): no cytotoxicity up to 50 μM
